Experimental data from patent publication US20220387410A1, “4-[5-[(rac)-1-[5-(3-Chlorophenyl)-3-isoxazolyl]ethoxy]-4-methyl-4H-1,2,4-triazol-3-yl]pyridine for use in prevention and/or treatment of surmenage in a mammal” (priority 2019, published 2022).
Where two headings read alike, the source gives them in different places. Marks after values point to notes of the source that are not given here.

Tests used:
[1] = system: Mice; conditions: p<0.001, cited from earlier work
[2] = system: cat or dog undergoing elective castration or ovariohysterectomy; assay: Recovery after neutering, TT001 added as pre-medication (Example 1); type: in vivo
Protocol: To study recovery after neutering, cage demeanour scoring using a simple descriptive scale was used. The dogs were premedicated with acepromazine and pethidine, intermuscular (i.m.) in a first group, or in a second group TT001 was also added as pre-medication.
Twenty to forty minutes after pre-medication, the sedation was scored with the SDS (simple descriptive scale). The dogs were induced with propofol. Anesthesia was maintained with isoflurane in oxygen. Intraoperative analgesia was provided with morphine, prior to surgery. At the end of the surgery, group 1 received meloxicam, while group 2 received no additional treatment.
(§1) At the end of the procedure and recovery SDS was scored.

[3] = system: cat or dog undergoing elective castration or ovariohysterectomy; assay: Recovery after neutering, TT001 plus meloxicam vs meloxicam (Example 2); type: in vivo
Protocol: To study recovery after neutering, cage demeanour scoring using a simple descriptive scale was used. The dogs were premedicated with acepromazine and pethidine, i.m. in a first group, and meloxicam orally or in a second group TT001 was also added as pre-medication.
Twenty to forty minutes after pre-medication the sedation was scored with the SDS (simple descriptive scale). The dogs were induced with propofol. Anesthesia was maintained with isoflurane in oxygen. Intraoperative analgesia was provided with morphine, prior to surgery. At the end of the surgery, group 1 continued to receive meloxicam, while group 2 continued to receive TT001 as well as meloxicam. No additional treatment was administered.
as §1

[4] = system: mouse FST behavior; assay: Forced Swim Test; type: in vivo; conditions: for Immobility duration: mouse FST, vehicle 112.5 ± 14.10
Description: TT001 has been used in the Forced Swim Test. _For protocol see Can A., et al., The Mouse Forced Swim Test, J Vis Exp. 2012; (59): 3638.

[5] = system: rats; assay: Learned helplessness studies; type: in vivo, rat
Description: Nomura S. et al., Studies on animal model of depression: review and perspective, Review, Yakubutsu Seishin Kodo, 1989 December; 9(4):349-58.
TT001 was used in learned helplessness studies in rats.

[6] = system: dogs; assay: Toxicological studies in dogs, maximum 52 weeks, gavage; type: in vivo, dog; conditions: dogs, 2, 6, 7 or 31 mg/kg by gavage, after 52 weeks
Protocol: Toxicological studies for TT001 in dogs, were performed on dogs using 2, 6, 7 or 31 mg/kg, for a maximum of 52 weeks. The dogs were fed with gavage throughout this period and blood samples were taken throughout the period.
Balcome at al Contemporary Topics 2004 by the American Association for Laboratory Animal Science. Vol 43. […] In addition, the animals are separated and live in small areas which further increase the stress.

[7] = Dissolution of TT001 in I.V. formulation vehicle; type: physicochemical; conditions: 0.1-10 mg/mL in 40% w/v HPβCD in water for injection; a couple of hours for complete dissolution
Protocol: Formulation Method for the Preparation of TT001 for I.V. Dosing, 0.1 to 10 mg/ml
The formulation method is applicable at concentrations in formulation between 0.1 and 10 mg/mL corresponding to 0.262 and 26.2 μmol/mL
Preparation of 40% w/v HPβCD solution in water for injection
Preparation of TT001 I.V. formulations between 0.1 and 10 mg/ml

[8] = system: TLESR; conditions: healthy volunteers, cited from earlier work
[9] = system: humans; conditions: cited from earlier work
[10] = system: dogs; conditions: cited from earlier work
[11] = cat or dog undergoing elective castration or ovariohysterectomy
[12] = group 2 (TT001 pre-medication) vs group 1
[13] = group 2 (TT001 + meloxicam) vs group 1 (meloxicam)

CN1CC(=O)NC1=NC(=O)Nc1cccc(Cl)c1 [Fenobam]
stress-induced hyperthermia (SIH) ([1]; 10 mg/kg): significantly reversed
stress-induced hyperthermia (SIH) ([1]; 30 mg/kg): significantly reversed

C[C@@H](Oc1nnc(-c2ccncc2)n1C)c1cc(-c2cccc(Cl)c2)on1 [TT001, 4-[5-[(1R)-1-[5-(3-Chlorophenyl)-3-isoxazolyl]ethoxy]-4-methyl-4H-1,2,4-triazol-3-yl]pyridine]
effect on duration of the recovery period [2, 11]: positive effect
cortisol values ([2]; group 2 (TT001) vs commonly used anesthesia protocol): Lower
Time to extubation ([2]; group 2 (TT001 added as pre-medication) vs group 1 (acepromazine, pethidine; meloxicam after surgery)): shorter
Time to lifting the head after surgery [2, 12]: shorter
Time to raising from the bed after surgery [2, 12]: shorter
Time to start of spontaneous/voluntary urination after surgery [2, 12]: shorter
Time to starting to eat after surgery [2, 12]: shorter
nausea [2, 12]: Less
effect on duration for the recovery period [3, 11]: positive effect
Time to extubation [3, 13]: shorter
Time to lifting the head after surgery [3, 13]: shorter
Time to raising from the bedding after surgery [3, 13]: shorter
Time to start of spontaneous/voluntary urination after surgery [3, 13]: shorter
Time to starting to eat after surgery [3, 13]: shorter
cortisol values [3, 13]: Lower
nausea [3, 13]: Less
time in intensive care/PACU unit [3, 13]: Less
Immobility duration ([4]; TT001 3 μmol/kg): 51.15 ± 7.788 ^a sec
Immobility duration ([4]; TT001 10 μmol/kg): 47.45 ± 11.45 ^a sec
Immobility duration ([4]; TT001 30 μmol/kg): 44.83 ± 4.693 ^a sec
signs of gastric ulcer or changes in mucosa ([4]; test animals of the mouse Forced Swim Test): none of the test animals had signs of gastric ulcer
Escape Failures, Day 4 Mean ([5]; 1.8 μmol/kg, vehicle 11.1): 2.2
Escape Failures, Day 3 Mean ([5]; 1.8 μmol/kg, vehicle 23.2): 6.9
Escape Failures, Total Day 3 + Day 4 ([5]; 1.8 μmol/kg, vehicle 34.25, p < 0.05 vs vehicle): 9.1 ^a
stomach ulcers ([5]; learned helplessness studies): did not appear
signs of gastric ulcer [6]: none of the animals showed signs of gastric ulcer
dissolution [7]: moderate
effect on TLESR ([8]; 13 mg (about 0.19 mg/kg), 2 to 3 hours after food-intake): some effect
side effects ([8]; high doses of 13 mg): Some serious side effects
effect on reflux ([8]; prior to food intake and 1-2 hours after food intake): no significant effect
effect on anxiety ([9]; humans): no effect
clinical effect in all indications (chronic pain, anxiety, GERD) ([9]; man, oral, clinical development discontinued): lack of effect

COc1cccc(C2(O)CCCCC2CN(C)C)c1 (centres unmarked) [Tramadol]
pain killer effect [10]: not present
